This is an account of results in patent US9757375B2, “Compounds that inhibit human DNA ligases and methods of treating cancer” (University of Maryland, Baltimore, priority 2007, dated 2017).

For test [1], the system named is Human DNA ligases I, III and IV and T4 DNA ligase. The test can be described thus: Step 3 of the ligation reaction: ligation of preadenylated nick by non-adenylated ligase. In kind it is biochemical. The following applies: for Mechanism: ligation step inhibited (3rd step): Table 5A. The method, then: To analyze step 3 of the ligation reaction, an adenylated labeled version of the 18-mer was prepared as described (24). The DNA substrate containing a preadenylated nick (0.5 pmol) and hLigI (0.05 pmol), hLigIIIβ (0.05 pmol), hLigIV/XRCC4 (0.1 pmol), or T4 DNA ligase (0.05 pmol) were incubated in ligation buffer without ATP, either in the presence or absence of the ligase inhibitors (100 μmol/L). Reactions were stopped by the addition of an equal volume of gel loading dye (95% formamide, 0.05% bromophenol blue, and 0.05% xylene cyanol). After heating at 95° C. for 5 min, DNA was separated by denaturing polyacrylamide gel electrophoresis. Labeled oligonucleotides were detected and quantitated in the dried gel by phosphorImager analysis (Molecular Dynamics).
Since the final two steps of the ligation reaction involve interactions with DNA, we examined the effects of the ligase inhibitors on the second (FIG. 3B) (The labeled ligase-adenylate form of human DNA ligases I, III and IV and T4 DNA ligase were incubated with a linear DNA substrate containing a single non-ligatable nick in the absence or presence of compounds 67, 82 and 189 (100 μM). After separation by denaturing gel electrophoresis, the labeled DNA-AMP complex was detected by phosphorimaging (26)) and third steps (FIG. 3C) of the ligation reaction using established assays (25,26) (Non-adenylated human DNA ligases I, III and IV and T4 DNA ligase were incubated with labeled DNA-AMP in the absence or presence of compounds 67, 82 and 189 (100 μM). After separation by denaturing gel electrophoresis, labeled ligated DNA was detected by phosphorimaging (25)).

Test [2] concerns DNA. As to the kind of experiment: DNA binding by displacement of ethidium bromide from DNA. To be noted: EtBr replacement assay; 192 at 0, 50, 100 μM. The method, then: Candidate ligase inhibitors identified by CADD were assayed for their ability to inhibit hLigI and T4 DNA ligase using a high-throughput, fluorescence energy transfer-based DNA joining assay (22). Duplicate reactions (30 μL) containing 10 pmol of nicked DNA substrate and either 0.25 pmol of hLigI or 10 units of T4 DNA ligase were incubated in the presence or absence of 100 μmol/L of the putative inhibitor. DNA binding by the candidate DNA ligase inhibitors was measured by displacement of ethidium bromide from DNA as previously described (30).

For test [3], the system named is Human DNA ligases I, III and IV and T4 DNA ligase. As to the kind of experiment: Step 1 of the ligation reaction: ligase-AMP complex formation with [α32P] ATP. To be noted: for inhibition of the first step of the ligation reaction (ligase-AMP formation): 100 μM, FIG. 3A. In kind it is biochemical. The method, then:
Human DNA ligases I, III and IV and T4 DNA ligase were incubated with [α^32P] ATP in the absence or presence of compounds 67, 82 and 189 (100 μM). After separation by SDS-PAGE, the labeled ligase-AMP complex was detected by phosphorimaging.

The subject of test [4] is HeLa cell extract. The test can be described thus: Cell extract assay of short patch base excision repair (incised AP site). In kind it is biochemical, human. To be noted: 100 μmol/L (also 25 μM in the source), FIG. 4B. The method, then:
Extracts were prepared from human cervical cancer HeLa cells as described previously (27, 31). For base excision repair (BER) assays, the extraction buffer contained 100 mmol/L of KCl, whereas for nonhomologous end-joining (NHEJ) assays, extraction buffer contained 400 mmol/L of KCl. Where indicated, DNA ligases were immunodepleted from the extracts as described (32) using protein A or G Sepharose beads (GE Healthcare) and anti-Lig1, anti-LigIII (GeneTex), or anti-LigIV (ABCAM) antibodies. Depletion was confirmed by immunoblotting.
A labeled 5′-flap substrate (0.1 pmol; (31)) was incubated with 20 μg of extract in the absence or presence of ligase inhibitors (100 μmol/L) at 25° C. for 5 min in ligation buffer (final volume, 50 μL). For short patch BER, a linear duplex containing a single uracil residue was preincised by treatment with uracil DNA glycosylase and APE1 (both from NEB) to generate a strand break with 3′ hydroxyl and 5′ deoxyribose phosphate termini. Reactions (50 μL) containing 0.3 pmol of the incised DNA substrate, 10 μCi of [α^32P]dTTP, and 20 μg of extract either in the absence or presence of ligase inhibitors (100 μmol/L) were incubated at 25° C. for 2 min in ligation buffer. After separation by denaturing polyacrylamide gel electrophoresis, labeled oligonucleotides were detected in the dried gel by phosphorImager analysis (Molecular Dynamics).
A natural AP site within a linear DNA molecule (FIG. 4B) is repaired primarily by short patch base excision repair that is completed by DNA ligase 111 (15). FIG. 4B, the linear DNA substrate with an incised AP site (0.3 pmol) was incubated with a cell extract (20 μg) and [a32P]dTTP in the absence (lane 1, Mock) or presence of 100 μmol/L of L189 (lane 2), L67 (lane 3), or L82 (lane 4). hLigI (lane 5, I-dp) and hLigIIIα (lane 6, III-dp) were immunodepleted from the cell extracts prior to incubation with the DNA substrate. […] After separation by denaturing gel electrophoresis, labeled fragments corresponding to a single nucleotide insertion and fully repaired product were detected by phosphorimaging (16). […]

As for `Cc1oc(C(=O)O)cc1CSCc1cc(C(=O)O)c(C)o1` [Compound 197], the “Mechanism: ligation step inhibited (3rd step)” value in test [1] is 3rd step.

Regarding `O=c1[nH]ncc(N/N=C\c2ccc(O)c([N+](=O)[O-])c2)c1Cl` [Compound 82], in test [2], the “DNA binding of compound (effect on DNA binding by ethidium bromide)” value (from here on “DNA binding of compound”) was “had no effect on DNA binding by ethidium bromide”. Also, the “inhibition of step 3 of the ligation reaction” value in test [1] (100 μM, FIG. 3C) is recorded as “inhibit step 3”. Also, the “Mechanism: ligation step inhibited (3rd step)” value in test [1] is reported as 3rd step. Besides, the “inhibition of the first step of the ligation reaction (ligase-AMP formation)” value (“inhibition … (ligase-AMP formation)” below) in test [3] is on record as “did not inhibit”. Moreover, in test [4], the “repair of the natural AP site (short patch base excision repair)” value (“repair of the natural AP site” for short) is on record as “has no effect”.

On to `O=C(O)CSc1cc(Cl)c2nonc2c1[N+](=O)[O-]` [Compound 64], for which the “Mechanism: ligation step inhibited (1st step)” value in test [3] (Table 5A) is on record as 1st step.

With `Cc1c(Br)cc(NCC(=O)N/N=C\c2cc([N+](=O)[O-])ccc2O)cc1Br` [Compound 67], in test [2], the “DNA binding of compound” value is listed as “had no effect on DNA binding by ethidium bromide”. Also, the “Mechanism: ligation step inhibited (3rd step)” value in test [1] is given as 3rd step. For the same molecule, in test [3], the “inhibition … (ligase-AMP formation)” value is “did not inhibit”. For the same molecule, in test [4], the “repair of the natural AP site” value is listed as “reduce repair of the natural AP site”.

Turning to `Nc1nc(S)nc(O)c1/N=C/c1ccccc1` [Compound 189], the “DNA binding of compound” value in test [2] is on record as “had no effect on DNA binding by ethidium bromide”. For the same molecule, the “Mechanism: ligation step inhibited (3rd step)” value in test [1] was 3rd step. Also, in test [3], the “inhibition … (ligase-AMP formation)” value is recorded as “did not inhibit”. In addition, the “repair of the natural AP site” value in test [4] is listed as “reduce repair of the natural AP site”.
